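Assay format: 96-well plates, 48-hour exposure. Abbreviation: GI50, concentration required for 50% inhibition of growth.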 Calls of active or inactive are those of the source. Cut-off read from the data, not from the text of the source: active = GI50 up to about 1.1 µM and inactive = higher.
Experiments:
Assay in all cases: NCI-60 cell line screen, 48 h
SF-268 = tested on: SF-268
Malme-3M = tested on: Malme-3M
CAKI-1 = tested on: CAKI-1
786-0 = tested on: 786-0
CCRF-CEM = tested on: CCRF-CEM
NCI-H226 = tested on: NCI-H226
NCI-H23 = tested on: NCI-H23
OVCAR-5 = tested on: OVCAR-5
SK-MEL-5 = tested on: SK-MEL-5
SNB-75 = tested on: SNB-75
MOLT-4 = tested on: MOLT-4
UO-31 = tested on: UO-31
SNB-19 = tested on: SNB-19
EKVX = tested on: EKVX
DMS-273 = tested on: DMS-273
UACC-62 = tested on: UACC-62
SK-OV-3 = tested on: SK-OV-3

Measured: GI50

c1cnc2c(c1)-n1cccc1C1(CCSC1)NN2 (stereo not drawn)
inactive: SF-268 > 100 µM | Malme-3M > 100 µM | CAKI-1 > 100 µM | 786-0 > 100 µM | CCRF-CEM > 100 µM | NCI-H226 > 100 µM | NCI-H23 > 100 µM | OVCAR-5 > 100 µM | SK-MEL-5 > 100 µM | SNB-75 > 100 µM | MOLT-4 > 100 µM | UO-31 > 100 µM | SNB-19 > 100 µM | EKVX > 100 µM | DMS-273 > 100 µM

COc1nc(NC2OCC(O)C(O)C2O)c(NC2OCC(O)C(O)C2O)c(=O)n1C (stereo not drawn)
inactive: SF-268 > 100 µM | Malme-3M > 100 µM | 786-0 > 100 µM | CCRF-CEM > 100 µM | NCI-H226 89.7 µM | NCI-H23 > 100 µM | SNB-75 > 100 µM | MOLT-4 > 100 µM | UO-31 > 100 µM | UACC-62 > 100 µM | SNB-19 > 100 µM | EKVX > 100 µM | DMS-273 > 100 µM | SK-OV-3 > 100 µM

NCC(=O)OCN1C(=O)C2C3C=CC(C2C1=O)C1C2C(=O)N(COC(=O)CN)C(=O)C2C31 (stereo not drawn)
inactive: SF-268 20.9 µM | CAKI-1 53.5 µM | 786-0 22.8 µM | CCRF-CEM 22.9 µM | NCI-H226 50.5 µM | NCI-H23 21.1 µM | SK-MEL-5 25.5 µM | SNB-75 23.6 µM | MOLT-4 28.9 µM | UO-31 31.9 µM | UACC-62 23 µM | SNB-19 71.3 µM | DMS-273 18.2 µM | SK-OV-3 76.9 µM

N#CC12CCC(O)C(CC1)C2=O (stereo not drawn)
inactive: SF-268 > 100 µM | Malme-3M > 100 µM | CAKI-1 > 100 µM | 786-0 > 100 µM | CCRF-CEM > 100 µM | NCI-H226 > 100 µM | NCI-H23 > 100 µM | OVCAR-5 > 100 µM | SK-MEL-5 > 100 µM | SNB-75 > 100 µM | MOLT-4 > 100 µM | UO-31 > 100 µM | UACC-62 > 100 µM | SNB-19 > 100 µM | EKVX > 100 µM | DMS-273 96.8 µM | SK-OV-3 > 100 µM

CCCCc1c2c(nc3c1CCc1cc4c(nc1-3)-c1nc3c(c(CCCC)c1CC4)CCC/C3=C\c1ccccc1)/C(=C/c1ccccc1)CCC2
inactive: SF-268 > 100 µM | Malme-3M > 100 µM | CAKI-1 29.1 µM | 786-0 25.2 µM | CCRF-CEM 48.6 µM | NCI-H226 > 100 µM | NCI-H23 73.5 µM | OVCAR-5 > 100 µM | SK-MEL-5 69.7 µM | MOLT-4 > 100 µM | UO-31 > 100 µM | UACC-62 97.3 µM | SNB-19 35.9 µM | EKVX > 100 µM | DMS-273 35.2 µM | SK-OV-3 36.2 µM

COc1cc(C)c(C)c(OC(=O)c2c(C)c(C)c(OC)c(C)c2OC)c1C
inactive: SF-268 11.8 µM | Malme-3M 6.9 µM | CAKI-1 7.26 µM | 786-0 12.3 µM | CCRF-CEM 13.2 µM | NCI-H226 15.7 µM | NCI-H23 10.4 µM | OVCAR-5 28.8 µM | SK-MEL-5 5.02 µM | SNB-75 4.04 µM | MOLT-4 9.31 µM | UO-31 32.4 µM | UACC-62 6.71 µM | SNB-19 15.4 µM | EKVX 15.3 µM | DMS-273 3.94 µM | SK-OV-3 7.19 µM

CC(C)OP(=O)(OC(C)C)/C(=N/Nc1ccc([N+](=O)[O-])cc1)NCCN/C(=N\Nc1ccc([N+](=O)[O-])cc1)P(=O)(OC(C)C)OC(C)C
inactive: SF-268 > 100 µM | Malme-3M 8.83 µM | CAKI-1 3.58 µM | 786-0 9.86 µM | CCRF-CEM 2.84 µM | NCI-H226 3.94 µM | NCI-H23 2.31 µM | OVCAR-5 31.6 µM | SK-MEL-5 6.22 µM | SNB-75 5 µM | MOLT-4 3.31 µM | UO-31 4.4 µM | UACC-62 2.15 µM | SNB-19 3.35 µM | EKVX 4.54 µM | DMS-273 3.7 µM

N#CC1(c2nc3ccccc3o2)C(=O)C(=O)N(c2ccc(Cl)c(Cl)c2)C(=O)C1=O
inactive: SF-268 > 100 µM | Malme-3M > 100 µM | CAKI-1 > 100 µM | 786-0 > 100 µM | CCRF-CEM 48 µM | NCI-H226 > 100 µM | NCI-H23 > 100 µM | OVCAR-5 > 100 µM | SK-MEL-5 > 100 µM | SNB-75 > 100 µM | MOLT-4 30.3 µM | UO-31 > 100 µM | SNB-19 > 100 µM | EKVX > 100 µM | DMS-273 > 100 µM

Cc1ccc(NC(=O)C(=O)C(C#N)c2nc(-c3ccc(-c4ccccc4)cc3)cs2)c(C)c1 (stereo not drawn)
inactive: SF-268 > 100 µM | Malme-3M > 100 µM | CAKI-1 > 100 µM | 786-0 > 100 µM | NCI-H226 > 100 µM | OVCAR-5 > 100 µM | SK-MEL-5 > 100 µM | SNB-75 > 100 µM | MOLT-4 > 100 µM | UO-31 > 100 µM | UACC-62 > 100 µM | SNB-19 > 100 µM | EKVX > 100 µM | DMS-273 39.6 µM | SK-OV-3 > 100 µM

Cc1ccc(NC(=O)CC(=O)N2N=C(N(CCC#N)c3cccc(C)c3)CC2c2ccccc2)cc1 (stereo not drawn)
inactive: SF-268 > 100 µM | Malme-3M > 100 µM | 786-0 > 100 µM | CCRF-CEM > 100 µM | NCI-H226 > 100 µM | NCI-H23 > 100 µM | OVCAR-5 > 100 µM | SK-MEL-5 > 100 µM | SNB-75 > 100 µM | MOLT-4 > 100 µM | UO-31 > 100 µM | UACC-62 > 100 µM | SNB-19 > 100 µM | EKVX 5.97 µM | DMS-273 > 100 µM | SK-OV-3 > 100 µM

C[C@]12CCC[C@H](Cl)C1(O)C[C@H](C(=O)O)CC2 (stereo partly drawn)
inactive: SF-268 > 100 µM | Malme-3M > 100 µM | CAKI-1 > 100 µM | 786-0 > 100 µM | CCRF-CEM > 100 µM | NCI-H226 > 100 µM | NCI-H23 > 100 µM | OVCAR-5 > 100 µM | SK-MEL-5 > 100 µM | SNB-75 > 100 µM | MOLT-4 > 100 µM | UO-31 > 100 µM | UACC-62 > 100 µM | SNB-19 > 100 µM | EKVX > 100 µM | DMS-273 > 100 µM | SK-OV-3 > 100 µM

NC(CCC(=O)Nc1ccc(O)cc1)C(=O)O (stereo not drawn)
inactive: SF-268 > 100 µM | Malme-3M > 100 µM | CAKI-1 > 100 µM | 786-0 > 100 µM | CCRF-CEM > 100 µM | NCI-H226 > 100 µM | OVCAR-5 > 100 µM | SK-MEL-5 > 100 µM | SNB-75 > 100 µM | MOLT-4 > 100 µM | UO-31 > 100 µM | UACC-62 > 100 µM | SNB-19 > 100 µM | EKVX > 100 µM | DMS-273 > 100 µM | SK-OV-3 > 100 µM

From ChEMBL document CHEMBL1201862, “PubChem BioAssay data set” (2004)
